Data on 4 compounds can be found in patent US6541486B1, “Bis-benzimidazole compounds and analogs thereof for inhibiting cell death” (Elan Pharma International Ltd., priority 1999, dated 2003).

The subject of data set [1] is OGD cells (retinal ganglion cells). As to the kind of experiment: Increase in survival of OGD cells at fixed concentrations (similar assay). The data set is classed as cell-based, rat.
The subject of data set [2] is rat middle cerebral artery occlusion (MCAO) model of focal ischemia. Put plainly: MCAO in vivo stroke model: ischemic, infarct and edema volumes. Conditions: for Reducing post-ischemic damage (in words): rats; for % Protection, Cortical infarct volume / % Protection, Cortical penumbra / % Protection, Edema / % Protection, Subcortical infarct volume / % Protection, Subcortical penumbra / % Protection, Total infarct volume / % Protection, Total ischemic volume: rat. The protocol:
Compounds were administered by either an IV (intravenous) or ICV (intracerebroventricular) route in the MCAO model, described above and in Example 18. The extent of ischemic damage in the absence and presence of compound was assessed by visualization of coronal brain slices. Conversion of 2,3,5-triphenyltetrazolium chloride (TTC) to formazan in normal tissue produces a red color. Unstained areas (white) constitute the infarct, whereas pink areas between white (infarction) and red stained areas (normal brain) define the ischemia penumbra. Preliminary studies confirmed that tissues stained pink contained mixed populations of living and dead cells.
Results are also illustrated in FIGS. 2-3 for ICV administration and FIGS. 4-5 for IV administration.
Adult male Wistar rats weighing 310-380 g were used. Animals were fasted overnight but allowed free access to water. Anesthesia was induced and maintained with 3% isoflurane in […]. Systemic blood pressure was recorded before, during and after middle cerebral artery occlusion (MCAO) and immediately before administering the test compound. Subjects received test compound SNX 912, 5 mg/kg ICV pre-MCAO, or 25 mg/kg IV immediately following reperfusion, after two hours MCAO, as compared to control subjects, which received deionized water. Temperature was controlled and recorded before, during and following reperfusion. After reperfusion, temperature was measured every hour for 4 hrs post-reperfusion.
All animals were subjected to 2 hr of MCAO using the intraluminal filament technique of Koizume et al. (1986) as modified by Zhao et al. (1994). A midline surgical incision was made to expose the right common, external and internal carotid arteries. The common cartotid, external carotid and occipital arteries were tightly ligated, and the internal carotid artery was temporarily closed with a microvascular clip. A small incision was made in the common carotid artery and a nylon monofilament was inserted into the internal carotid artery through the common carotid artery. The filament was then carefully advanced 19 mm cephalad to occlude the middle cerebral artery at its site of origin within the Circle of Willis. […] After 2 hr of MCAO, the animals were re-anesthetized with 1.5% halothane, and the occlude filament was withdrawn to allow reperfusion.
Because MCAO by the intraluminal filament technique can give rise to intra- and post-ischemia hyperthermia, rectal temperature was controlled by external heating and cooling for 6 hrs after initiating MCAO. Rectal temperature was maintained at 37.5+/−0.5° C.
Animals were killed 24 hr post-reperfusion by CO2 asphyxiation. Following asphyxiation, the brains were quickly removed and chilled in ice cold 0.9% saline for 10 min. To visualize the extent of ischemic damage, seven 2 mm thick coronal slices were cut from each brain with a tissue slicer beginning with 1 mm posterior to the anterior pole. The slices were immersed in a 0.9% saline solution containing 1.0% 2,3,5-tripheyltetrazolim chloride (TTC) and incubated at 37° C. for 30 minutes, and observed for the presence of formazan (red), which is produced by the reduction of TTC by endogenous dehydrogenase activity in normal living tissues.

The test system of data set [3] is Oxygen/Glucose Deprived Cardiac Myocytes. Put plainly: Protection of oxygen/glucose deprived cardiac myocytes. The data set is classed as cell-based. As for the experimental part:
The hypoxic cardiac myocyte (CM) has been used as a simplified model of myocardial ischemia. In the present study, cultures of CM's were deprived of oxygen and glucose for 8 hours, then also exposed to 24-48 hours reoxygenation. It is known that reperfusion of the damaged areas can be one of the major mechanisms of myocardial cellular injury. […] Cell survival was quantitated as described above.

In data set [4] the test system is Oxygen/Glucose Deprived RGCs (retinal ganglion cells). As to the kind of experiment: Protection of oxygen/glucose deprived (OGD) retinal ganglion cells, EC50. The conditions noted are these: overall judgement.
Procedure: Each compound was added to control cells and to cells deprived of oxygen and glucose for the time period from 30 minutes prior to OGD, during OGD, and for 24 and 48 hours after OGD.
RGCs from postnatal day 8 (P8) Sprague-Dawley rats were purified as previously described (Barres et al., 1988; Meyer-Franke et al., 1995). Purified retinal ganglion cells were plated onto tissue culture plastic precoated with poly-D-lysine and merosin, and cultured in serum-free Neurobasal medium (Gibco) containing various supplements.
Approximately 5,000 purified RGCs were cultured in 96-well plates (Falcon), precoated with poly-D-lysine (PDL, 70 kD, 10 mg/ml; Sigma) and merosin (2 mg/ml; Gibco). The RGCs were cultured in serum-free Neurobasal medium (Brewer et al., 1993; Gibco) containing Sato-Bottenstein and B27 (Gibco) supplement, insulin (Sigma, 5 mg/ml), brain-derived neurotrophic factor (BDNF, 25 ng/ml; Preprotech), ciliary neurotrophic factor (CNTF, 20 ng/ml; Preprotech) and forskolin (10 mM, Sigma). The percentage of surviving cells was assessed at 3, 7, and 14 days by the MTT assay.
Retinal ganglion cells were grown in 96-well plates for 5 days in serum-free medium as described above. On the sixth day cells were washed three times in a salt solution, e.g. Earle's balanced salt solution (EBSS, Gibco), containing glucose for control cells, and lacking glucose for test cells (oxygen/glucose-deprived cells). Control cells were further incubated in a 5% CO2 incubator while OGD cells were deprived of oxygen in an anaerobic chamber (for 3 hours). Test compounds were added to control cells and OGD cells for the time period from 30 minutes prior to OGD, during OGD, and for 24 and 48 hours after OGD.
After 3 hours OGD, control and test cells were transferred to growth medium with glucose and cultured an additional 48 hours in a 5% CO2 incubator, followed by a determination of cell viability using MTT, propidium iodide and annexin assays.
For the cell viability assay, MTT was added to culture and incubated at 37° C. for 1 hr. […] Viable and dead cells are counted by bright field microscopy at various times, e.g. 24, 48, or 72 hours after oxygen/glucose and/or growth factor deprivation. All values are reported as the mean (average) +/− the standard error of the mean (SEM) for at least three replicate cultures.
Where [5] appears, read: IV (25 mg/kg) immediately following reperfusion after 2 h MCAO.
The mark [6] stands for this setting: 8 hrs OGD / 24 hrs reoxygenation.
The mark [7] stands for this setting: 8 hrs OGD / 48 hrs reoxygenation.

Each structure is given as a SMILES string. “Also recorded” adds a separate entry of the source.

Take `Nc1cccc2[nH]c(Cc3nc4ccccc4[nH]3)nc12` [SNX 912, 2-(benzimidazol-2′-yl)methyl-4-amino benzimidazole]: the “Percent Increase in Survival over OGD Control Cells” value (“Percent Increase in Survival” below) in data set [1] (Concn 0.001 μM) was “++ (50%-100% increase)”. Besides, in data set [1] (Concn 0.01 μM), the “Percent Increase in Survival” value was “++ (50%-100% increase)”. Moreover, the “Percent Increase in Survival” value in data set [1] (Concn 0.1 μM) is on record as “++ (50%-100% increase)”. Besides, the “Percent Increase in Survival” value in data set [1] (Concn 1 μM) is recorded as “+++ (>100% increase)”. Moreover, in data set [1] (Concn 10 μM), the “Percent Increase in Survival” value was “+++ (>100% increase)”. Also, the “Reducing post-ischemic damage (in words)” value in data set [2] (5 mg/kg ICV) is listed as “effective”. The “Reducing post-ischemic damage (in words)” value in data set [2] (25 mg/kg IV) is “effective”. Also, in data set [2] (ICV (5 mg/kg) pre-MCAO), the “% Protection, Cortical infarct volume” value was 76%; the “% Protection, Cortical penumbra” value is given as 30%; the “% Protection, Edema” value was 80%; the “% Protection, Subcortical infarct volume” value was determined as 75%. In data set [2] (ICV (5 mg/kg) pre-MCAO), the “% Protection, Subcortical penumbra” value was 7%; the “% Protection, Total infarct volume” value worked out at 76%; the “% Protection, Total ischemic volume” value amounted to 47%. Further, in data set [2] (setting [5]), the “% Protection, Cortical infarct volume” value is given as 53%; the “% Protection, Cortical penumbra” value is on record as 10%; the “% Protection, Edema” value was found to be 26%; the “% Protection, Subcortical infarct volume” value is 55%. In data set [2] (setting [5]), the “% Protection, Subcortical penumbra” value is on record as 18%; the “% Protection, Total infarct volume” value is given as 55%; the “% Protection, Total ischemic volume” value worked out at 32%. In addition, in data set [3] (setting [6]), the concentration giving a half-maximal response (EC50) (commonly the concentration at which the effect is half-maximal) was determined as 310 nM and the “TI (therapeutic index)” value is reported as more than 30. In addition, in data set [3] (setting [7]), it took 55 nM to reach a half-maximal effect (EC50) and the “TI (therapeutic index)” value is reported as more than 200. In addition, the “Protection of cardiac myocytes from apoptotic cell death (in words)” value in data set [3] (compared to untreated OGD cells, dose dependent, nanomolar concentrations) is “protected the cardiac myocytes from apoptotic cell death; also recorded: effective”. Moreover, the “Effectiveness in protecting OGD RGCs (in words, from Tables 5 and 6)” value (from here on “Effectiveness in protecting OGD RGCs”) in data set [4] is “more effective overall than the unsubstituted compound”.

For the compound `Nc1cccc2[nH]c(Cc3nc4cc(Cl)ccc4[nH]3)nc12` [SNX 923, 2-[(5-Chloro-1H-benzimidazol-2-yl)methyl]-1H-benzimidazol-4-amine], the “Percent Increase in Survival” value in data set [1] (Concn 0.001 μM), in data set [1] (Concn 0.01 μM), in data set [1] (Concn 0.1 μM), in data set [1] (Concn 1 μM) and in data set [1] (Concn 10 μM) was “+++ (>100% increase)” in each case. The “Effectiveness in protecting OGD RGCs” value in data set [4] is on record as “more effective overall than the unsubstituted compound”.

As for `CC(c1nc2ccccc2[nH]1)c1nc2ccccc2[nH]1` [SNX 925, 2,2′-ethylidenebisbenzimidazole], the “Percent Increase in Survival” value in data set [1] (Concn 0.001 μM) is listed as “++ (50%-100% increase)”; in data set [1] (Concn 0.01 μM), “+++ (>100% increase)”; in data set [1] (Concn 0.1 μM), “+++ (>100% increase)”; in data set [1] (Concn 1 μM) it was “+++ (>100% increase)”; in data set [1] (Concn 10 μM), “+++ (>100% increase)”. The “Effectiveness in protecting OGD RGCs” value in data set [4] is “very effective”.

`Fc1cccc2[nH]c(Cc3nc4c(F)cccc4[nH]3)nc12` [SNX 930, 4,4′-difluoro*]: the “Percent Increase in Survival” value was “+ (up to 50% increase)” in data set [1] (Concn 0.001 μM); “+++ (>100% increase)” in data set [1] (Concn 0.01 μM); “+ (up to 50% increase)” in data set [1] (Concn 0.1 μM); “++ (50%-100% increase)” in data set [1] (Concn 1 μM); “++ (50%-100% increase)” in data set [1] (Concn 10 μM). Moreover, the “Effectiveness in protecting OGD RGCs” value in data set [4] is “more effective overall than the unsubstituted compound”.
